The nature of data set [1]: solubility of the compound (I) in normal solvents. The data set is classed as physicochemical.
Data set [2] addresses T1, elastase (Homo sapiens, UniProt P08246).
T1 sequence (P08246 30-267): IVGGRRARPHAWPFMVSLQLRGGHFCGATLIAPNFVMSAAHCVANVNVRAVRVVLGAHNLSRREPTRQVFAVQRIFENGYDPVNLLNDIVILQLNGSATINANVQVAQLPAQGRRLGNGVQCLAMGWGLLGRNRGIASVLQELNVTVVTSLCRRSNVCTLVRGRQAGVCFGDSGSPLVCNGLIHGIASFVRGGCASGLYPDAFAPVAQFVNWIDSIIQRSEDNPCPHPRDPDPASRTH
The settings on record: background statement; cited from earlier work.

A short description of data set [3]: amount of sodium hydroxide and stability in water/ethanol solution. The data set is classed as physicochemical. The settings on record: pH over 8.5. As for the experimental part: To the mixture added water in order to fill up to 5 mL of total solution.
Data set [4] can be described thus: change of pH in the time course on freeze-dried product comprising sodium carbonate. The data set is classed as physicochemical. As for the experimental part:
(a) when the aqueous solution was prepared,
(b) when the prepared aqueous solution was filled in each vial (5 mL), freeze-dried and then dissolved in water (10 mL),
(c) when the prepared aqueous solution was filled in each vial (5 mL), freeze-dried and the formulation obtained was left at 60 degrees Centigrade for two weeks and dissolved in water (10 mL).

Data set [5] in a line: investigation of pH adjusters: amount added, pH and clearness of suspension. The class given is physicochemical. As for the experimental part: The present inventors have investigated the amounts of di-sodium hydrogen phosphate, tri-sodium phosphate, potassium hydroxide and sodium hydroxide to add and the changes in pH thereby.
Di-sodium hydrogen phosphate dodecahydrate (80 g) was added to water (200 mL) and dissolved by heating. To the above suspension under stirring with a stirrer was added the aqueous solution of Di-sodium hydrogen phosphate dodecahydrate by 5 mL each and the pH was measured.
To the suspension under stirring with a stirrer was added an aqueous solution of […] (4 g/100 mL) by 5 mL portion each and the pH was measured.
To the suspension under stirring with a stirrer was added 1N aqueous solution of potassium hydroxide (0.5 mL portion each) and the pH of the solution was measured.
To the suspension under stirring with a stirrer was added 1N aqueous solution of sodium hydroxide (1 mL portion each) and the pH was measured.

Data set [6] is described as follows: investigation of a solution of high concentration. The data set is classed as physicochemical. The settings on record: 400 mg compound (I), 100 mg mannitol, 24 mg sodium hydroxide, water to 5 mL. How it is done:
To the mixture under stirring, was added IN aqueous solution of sodium hydroxide (0.6 mL: corresponds to 24 mg). Thereto was added water in order to fill up to 5 mL of total amount. […] Therefore it was impossible to freeze-dry the suspension.

Data set [7] can be described thus: admixing with amino acid infusion as replacement of pH adjusters. The data set is classed as physicochemical. The settings on record: compound (I) 5 mg/mL admixed with KYORYOKU MORIAMINE infusion.
The nature of data set [8]: stability of the drug products (pH and residual rate of freeze-dried products). The data set is classed as physicochemical. As for the experimental part: (i) an aqueous solution of tri-sodium phosphate dodecahydrate (36.4 mg/mL; 50 mL),
(ii) an aqueous solution of potassium hydroxide (56 mg/mL 6 mL),
(iii) an aqueous solution of sodium hydroxide (40 mg/mL; 5.6 mL)
(a) when the aqueous solutions were prepared,
(b) when the prepared aqueous solutions were filled in each vial (5 mL), freeze-dried and then dissolved in water (10 mL),
(c) when the prepared aqueous solution was filled in each vial (5 mL), freeze-dried and the drug product was left at 60 degrees Centigrade for two weeks (in case of sodium hydroxide for one month) and dissolved in water (10 mL).

Where [9] appears, read: formulation with sodium carbonate.

Structures are written as SMILES.

Take `CC(C)(C)C(=O)Oc1ccc(S(=O)(=O)Nc2ccccc2C(=O)NCC(=O)[O-])cc1.[Na+]` [compound (I), N-[o-(p-pivaloyloxybenzenesulfonylamino)benzoyl]glycine monosodium salt tetra-hydrate]: the solubility in data set [1] (ethanol, organic solvent or mixture, read-out: solubility in ethanol) is less than 6 mg/mL; in data set [1] (water, read-out: solubility in water) it was less than 0.4 mg/mL; in data set [8] (aqueous buffer, solvent exclusively water, with pH adjuster, read-out: solubility of the above solution (water with pH adjuster)), roughly 20 mg/mL. In addition, in data set [2], the “inhibitory activity against elastase” value was “has an inhibitory activity against elastase”. The “residual rate of the compound (I)” value in data set [3] was “over 98%”; in data set [4] (freeze-dried product with sodium carbonate, 60 degrees Centigrade, two weeks) it was 91.4%; in data set [8] (freeze-dried product with sodium hydroxide, 60 degrees Centigrade, 1 month), 98.3%. In addition, in data set [4] (formulation of JP kokai hei 5-194366 with sodium chloride and sodium carbonate), the “pH (a) when the aqueous solution was prepared” value amounted to 7.80. The “pH (b) freeze-dried and then dissolved in water (10 mL)” value in data set [4] (setting [9]) came to 8.11. In data set [4] (setting [9]), the “pH (c) freeze-dried, left at 60 degrees Centigrade for two weeks, dissolved in water (10 mL)” value is 8.44. Further, the results for the “pH when the suspension turned into a clear aqueous solution” value in data set [5] (5 mL of 1N potassium hydroxide added), in data set [5] (7 mL of 1N sodium hydroxide added) and in data set [5] (45 mL of tri-sodium phosphate dodecahydrate solution added) were 7.20, 7.44 and 7.19, respectively. For the same compound, the “condition of the suspension (clear solution or not)” value in data set [5] (di-sodium hydrogen phosphate dodecahydrate solution 200 mL (80 g), pH 8.18) is on record as “did not turn into a clear aqueous solution”. Further, the figures for the “condition of the mixture (clear solution or not)” value in data set [6] (ethanol 1.0 mL) and in data set [6] (no ethanol) were “clear solution” and “did not turn into a clear solution but a white suspension”, respectively. This compound displayed a pH after preparation in data set [7] of 6.36. Further, the “pH after twenty-four hours” value in data set [7] was 6.13. Further, in data set [7], the “residual rate of the compound (I) after twenty-four hours” value was 54.1%.

These data come from patent US6552082B2, “Solution of N-[o-(p-pivaloyloxybenzenesulfonylamino)benzoyl] glycine monosodium salt tetra-hydrate and drug product thereof” (Ono Pharmaceutical Co., Ltd., priority 2000, dated 2003).
